Where a SMILES comes first, the peptide text is derived from it.
Experiments:
[1] = system: S. aureus; experiment: Antimicrobial activity by flow cytometry (SYBR Green / propidium iodide); assay type: cell-based, Staphylococcus aureus subsp. aureus CECT 4013
Description: The strain used was CECT 4013 of S. aureus subsp. aureus, publicly accessible deposited in the Spanish Type Culture Collection (CECT).
Starting from cells of S. aureus cultured overnight in a liquid medium LB (peptone 1%, yeast extract 0.5% and NaCl 1%) at 37° C. with stirring, aliquots were obtained in a new liquid medium and allowed to grow until reaching an optical density at 600 nm (OD600) of 0.5, optimum for detection in the flow cytometer. Aliquots were prepared with a concentration of 5×10^6 cfu/100 μL of S. aureus to which were added 10, 15, 20 and 25 μg/mL of PaSK, 25 μg/mL of TcDef3-pep and H2O (negative control), solvent used to dilute the peptides. The mixtures were incubated at 37° C. for 8 h and marked with the fluorochromes SYBR Green (Invitrogen) (25 μL of a SYBR Green 25× solution in H2O) that stains all the cells and propidium iodide (Sigma) (10 μL of propidium iodide 1 mg/mL) that stains dead cells. Finally, the cell death caused by the peptides was analysed by flow cytometry with the equipment BD Facs Verse (Becton Dickinson), from the cell culture and flow cytometry section of the Central Services for Research Support of the University of Valencia. The experiments were performed in duplicate.
The flow cytometer forces cells to pass one by one through a needle, creating a thin line of liquid and detecting how the laser beam (argon emission laser at 488 nm, in the equipment used) interacts with the cells, depending on how the incident light is deviated and the fluorescence emitted by the excited fluorochromes. The results are presented as graphs obtained with the analysis program BD Facs suite v1.0.5.3841 (Becton Dickinson). […] Then, a second graph is obtained with the parameters SSC and FITC (fluorescence parameter indicating the cells containing SYBR Green), to differentiate the cells from the other particles that may be present in the sample. Lastly, a third graph is obtained with the fluorescence parameters FITC and PerCPCy5.5 (indicating the cells stained with propidium iodide) to differentiate the cells that have been stained only by SYBR Green from those stained with propidium iodide, which will be those that have died.
The antimicrobial activity of the peptide PaSK was determined by flow cytometry. […] Therefore, the use of these two fluorochromes provides a method for determining viable cells, quantifying the loss of cell viability from the increase in propidium iodide inside the dead cells.
After incubating the cells of strain CECT 4013 of S. aureus with 25 μg/mL of the peptides TcDef3-pep and PaSK, the percentage of dead cells was determined. […] FIGS. 1A-1D show the graphs corresponding to the fluorescence obtained in the windows of the flow cytometer.

[2] = system: MDA-MB-231 tumour cells; experiment: Cell cycle analysis by flow cytometry (CycleTEST PLUS, ModFit LT); assay type: cell-based, human; settings: 100 μg/mL, 72 h
Description: The MDA-MB-231 cells were cultured in dishes with 6 wells with a density of 5×10^4 cells per well, in which 200 μL or 400 μL of PaSK were added (final concentrations 100 μg/mL and 200 μg/mL) or the same volume of the medium (solvent used to dilute the peptide) in the corresponding controls. The cells were incubated at 37° C. for 72 h.
For the cell line analysis, the CycleTEST™ PLUS DNA Reagent Kit (Sigma-Aldrich) was used. Two washes were carried out using citrate buffer (containing sodium citrate, saccharose and dimethyl sulphoxide (DMSO)), centrifuging the samples in each one at 300×g for 5 min, and one final wash was performed in which the number of cells was adjusted to 5×10^5 and centrifuged at 400×g for 5 min, and then adding 250 μL of solution A (containing trypsin in a detergent buffer with spermine tetrahydrochloride), 200 μL of solution B (containing an inhibitor of trypsin and ribonuclease A, in a stabilising buffer of citrate with spermine tetrahydrochloride) and 200 μL of solution C (includes PI and the stabilising buffer with spermine tetrahydrochloride), leaving between the addition of each solution an interval of 10 min at room temperature and performing the last one, before filtering, in a cold chamber and in the dark. The analyses of cell death produced by the peptide and of the stage of cell cycle of the cells were performed with the equipment BD Facs Verse (Becton Dickinson). The cell cycle modelling was performed with the software Modfit LT, version 3.3.11. The experiments were performed in duplicate.
In this example, the cytotoxic and antiproliferative activity of the peptide PaSK is assessed by flow cytometry, performing an analysis of cell viability and an analysis of the cell cycle. After treatment of the tumour cells MDA-MB-231 with 200 μg/mL (cell viability experiments) and 100 μg/mL (analysis of cell cycle) of PaSK the percentage of viable cells was determined, as well as the stage of the cell cycle in which proliferation was stopped.

[3] = system: MDA-MB-231 triple-negative breast cancer cells; experiment: Cell viability MTS assay, cytotoxic effect; assay type: cell-based, human; settings: around 100 μM (400 μg/mL)
Description: Cell viability was determined by the MTS method. The MDA-MB-231 cells cultured in plates with 96 wells at 37° C. in an atmosphere humidified with 10% CO2 to a density of 5×10^3 cells/well were incubated with different concentrations of the peptide PaSK for 24 h. Then 20 μL were added of the solution MTS/PMS (3-(4,5-dimethylthiazol-2-yl)-5-(3-carboxymethoxyfenyl)-2-(4-sulphophenyl)-2H-tetrazole/phenazine methosulphate) to each well and after incubating for 2 h in the dark the absorbance at 490 nm was read in a plate reader. The percentage reduction in number of cells was calculated according to the formula (1−E/C)×100, where E is the absorbance of the cells treated with the peptide and C is the absorbance of the samples of the control cells.
The cytotoxic effect of the peptide PaSK has been studied in two cell lines of triple-negative breast cancer cells, one human (MDA-MB-231) and one mouse (4T1), and a line of normal mouse mammary epithelial cells (HC-11). To this end, a cell viability MTS assay was performed, based on the use of a compound derived from tetrazolium that is reduced in live cells to form a soluble coloured product. […]

## CC[C@H](C)[C@H](NC(=O)[C@H](CCCNC(=N)N)NC(=O)[C@H](CCCNC(=N)N)NC(=O)[C@H](CCCCN)NC(=O)[C@H](CC(N)=O)NC(=O)[C@H](CS)NC(=O)[C@H](Cc1ccc(O)cc1)NC(=O)CNC(=O)CNC(=O)[C@H](CCCNC(=N)N)NC(=O)[C@H](CCCCN)NC(=O)[C@H](CCCNC(=N)N)NC(=O)[C@H](CCCCN)NC(=O)[C@H](CC(C)C)NC(=O)[C@H](CC(C)C)NC(=O)[C@H](CS)NC(=O)[C@H](Cc1c[nH]cn1)NC(=O)[C@H](C)NC(=O)[C@H](C)NC(=O)[C@H](CS)NC(=O)[C@H](C)NC(=O)[C@H](C)NC(=O)[C@H](Cc1c[nH]cn1)NC(=O)[C@H](CC(N)=O)NC(=O)[C@@H](NC(=O)[C@@H](N)CCCCN)C(C)C)C(=O)N[C@@H](CS)C(=O)N[C@H](C(=O)N[C@@H](CS)C(=O)N[C@@H](CCCNC(=N)N)C(=O)N[C@@H](CC(N)=O)C(=O)O)C(C)C [PaSK] (H-KVNHAACAAHCLLKRKRGGYCNKRRICVCRN-OH; N-terminus and C-terminus assumed)
[1]; 10 μg/mL, same conditions
  percentage of cell death (cytotoxicity): ~100%
[1]; 25 μg/mL, 8 h at 37° C., 2 replicates
  percentage of dead cells (cytotoxicity): ~100%
[2]
  percentage of cells in stage G1: 57.9%
  percentage of cells in stage G2: 9.0%
  percentage of cells in stage S: 33.2%
[3]
  cytotoxicity compared with the other cell lines: significantly more cytotoxic
